Results: the supplement of paper PMC10307832

Experiments:
Experiment in all cases: relative viability (nuclei count vs DMSO), 5 days (fraction); higher = more cells survive
[1] = compound: CCn1c(-c2nonc2N)nc2cnc(Oc3cccc(NC(=O)c4ccc(OCCN5CCOCC5)cc4)c3)cc21 + Cc1nc(NC(=O)N2CCC[C@H]2C(N)=O)sc1-c1ccnc(C(C)(C)C(F)(F)F)c1 [Alpelisib] (partner 2 µM)
Outline: (§1)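 Relative viability was taken as the ratio of nuclei in treated wells to nuclei in vehicle wells. Lung cancer cell lines in 1536-well plates received compounds by pin tool one day after seeding, either one drug alone or a fixed anchor-drug dose plus five library-drug doses (not always all listed) in √10 steps. Nuclei were counted on 4× images after 5 days of treatment, and values are medians of duplicate plates.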

[2] = compound: CCC1=CN=CN=C1N2CCN(CC2)CC3=NC4=C(N3)C=C(C=C4)C(F)(F)F + NC(=O)Nc1cc(-c2cccc(F)c2)sc1C(=O)N[C@H]1CCCNC1 [AZD7762] (partner 0.2 µM)
Outline: as §1

[3] = compound: CCC1=CN=CN=C1N2CCN(CC2)CC3=NC4=C(N3)C=C(C=C4)C(F)(F)F + O=C(CCCCCCC(=O)Nc1ccccc1)NO [Vorinostat] (partner 1 µM)
Outline: as §1

[4] = compound: CCn1c(-c2nonc2N)nc2cnc(Oc3cccc(NC(=O)c4ccc(OCCN5CCOCC5)cc4)c3)cc21 + CC(C)C[C@H](NC(=O)[C@H](Cc1ccccc1)NC(=O)c1cnccn1)B(O)O [Bortezomib] (partner 0.002 µM)
Outline: as §1

| Cell Line | relative viability ([1]; first compound 0.04 µM) | relative viability ([1]; first compound 0.1265 µM) | relative viability ([1]; first compound 0.4 µM) | relative viability ([1]; first compound 1.265 µM) | relative viability ([1]; first compound 4 µM) | relative viability ([2]; first compound 0.04 µM) | relative viability ([2]; first compound 0.1265 µM) | relative viability ([2]; first compound 0.4 µM) | relative viability ([2]; first compound 1.265 µM) | relative viability ([2]; first compound 4 µM) | relative viability ([3]; first compound 0.04 µM) | relative viability ([3]; first compound 0.1265 µM) | relative viability ([3]; first compound 0.4 µM) | relative viability ([3]; first compound 1.265 µM) | relative viability ([3]; first compound 4 µM) | relative viability ([4]; first compound 0.04 µM) | relative viability ([4]; first compound 0.1265 µM) | relative viability ([4]; first compound 0.4 µM) | relative viability ([4]; first compound 1.265 µM) | relative viability ([4]; first compound 4 µM) |
| --- | --- | --- | --- | --- | --- | --- | --- | --- | --- | --- | --- | --- | --- | --- | --- | --- | --- | --- | --- | --- |
| NCI-H838 | 0.654 | 0.467 | 0.484 | 0.406 | 0.332 | 1.04 | 0.877 | 0.904 | 0.829 | 0.948 | 0.785 | 0.695 | 0.821 | 0.66 | 0.662 | 0.729 | 0.397 | 0.319 | 0.385 | 0.31 |
| NCI-H1355 | 0.863 | 0.951 | 0.818 | 0.814 | 0.863 | 0.744 | 0.722 | 0.638 | 0.627 | 0.637 | 0.643 | 0.575 | 0.584 | 0.585 | 0.644 | 1.22 | 1.27 | 1.02 | 0.72 | 0.621 |
| NCI-H1437 | 1.06 | 0.888 | 0.833 | 0.809 | 0.753 | 1.13 | 1.15 | 0.996 | 1.03 | 0.706 | 0.915 | 0.748 | 0.745 | 0.64 | 0.5 | 0.518 | 0.427 | 0.514 | 0.499 | 0.364 |
| NCI-H1651 | 1.09 | 1.06 | 0.883 | 0.964 | 0.653 | 0.452 | 0.433 | 0.436 | 0.484 | 0.524 | 0.615 | 0.56 | 0.542 | 0.506 | 0.584 | 0.9 | 0.94 | 0.824 | 0.496 | 0.86 |
| NCI-H1666 | 1.45 | 1.21 | 1.06 | 0.606 | 0.513 | 0.864 | 0.77 | 0.767 | 0.716 | 0.815 | 1.04 | 1.04 | 0.843 | 0.922 | 0.994 | 0.785 | 1.02 | 0.65 | 0.459 | 0.385 |
| NCI-H1734 | 0.802 | 0.708 | 0.513 | 0.571 | 0.402 | 0.619 | 0.626 | 0.562 | 0.564 | 0.782 | 0.734 | 0.803 | 0.783 | 0.7 | 0.814 | 0.889 | 0.837 | 0.511 | 0.412 | 0.35 |
| NCI-H1755 | 0.975 | 1.01 | 0.923 | 0.872 | 0.882 | 0.579 | 0.528 | 0.434 | 0.395 | 0.602 | 0.741 | 0.699 | 0.641 | 0.514 | 0.827 | 0.97 | 0.781 | 0.649 | 0.533 | 0.512 |
| NCI-H1915 | 1.03 | 1.09 | 1.03 | 1.08 | 1.04 | 0.684 | 0.688 | 0.694 | 0.597 | 0.734 | 0.591 | 0.51 | 0.496 | 0.492 | 0.559 | 1.16 | 0.94 | 0.958 | 0.653 | 0.314 |
